# Measured values as given in patent US9353113B2, “Tetrahydrocarboline derivative” (ONO PHARMACEUTICAL CO., LTD., priority 2011, dated 2016).
# Where a name gives a salt, the structure may show the parent alone.
# Biological target: human ENPP2 (Homo sapiens (Human), UniProt Q13822)
# Assay: Measurement of human ENPP2 inhibitory activity
# Type: biochemical
# Settings: human ENPP2, 16:0-LPC substrate
# Procedure: 10 μL of a test compound solution (10% dimethyl sulfoxide) at each concentration and 40 μL of a 5 μg/mL human ENPP2 solution (buffer A: 100 mmol/L Tris-HCl (pH 9.0), 500 mmol/L NaCl, 5 mmol/L MgCl2, 0.05% Triton X-100) were mixed, 50 μL of a 2 mmol/L 16:0-lysophosphatidylcholine (LPC) solution (buffer A) was further added to react at 37° C. for 24 hours. Subsequently, to 10 ill, of the reaction solution was added 90 III, of a measurement buffer (0.5 mmol/L aminoantipyrine, 0.3 mmol/L N-ethyl-N-(2-hydroxy-3-sulfopropyl)-3-methylaniline, 1 U/mL peroxidase, 3 U/mL choline oxidase, 100 mmol/L Tris-HCl (pH 8.5), 5 mmol/L CaCl2) to react at 37° C. for 20 minutes, and spectrophotometric determination was performed at 555 nm.
# Using a standard curve, a choline production amount (enzyme activity) in each test compound was calculated, and the inhibitory activity rate of each test compound was calculated, wherein the enzyme activity in a positive control to which a test compound is not added, was a 0% inhibition rate, and the enzyme activity in a negative control to which a test compound and human ENPP2 are not added, were 100% inhibition. Further, concerning the present compounds shown in Table 3, an IC50 value was calculated from inhibitory activity rate at each concentration.
row,IC50,Structure (SMILES)
1,4.5 nM,"CC(C)(CCCC(=O)N1CCc2c(n(Cc3cnc(C(F)(F)F)s3)c3ncccc23)C1)C(=O)O [Example 3(50), 2,2-dimethyl-6-oxo-6-(9-{[2-(trifluoromethyl)-1,3-thiazol-5-yl]methyl}-5,6,8,9-tetrahydro-7H-pyrido[4′,3′:4,5]pyrrolo[2,3-b]pyridin-7-yl)hexanoic acid]"
2,10 nM,"CC1(C)[C@@H](CC(=O)N2CCc3c(n(Cc4ccc(C(F)(F)F)cc4)c4ncccc34)C2)CC[C@@]1(C)C(=O)O [Example 6(53), (1R,3R)-1,2,2-trimethyl-3-(2-oxo-2-{9-[4-(trifluoromethyl)benzyl]-5,6,8,9-tetrahydro-7H-pyrido[4′,3′:4,5]pyrrolo[2,3-b]pyridin-7-yl}ethyl)cyclopentanecarboxylic acid]"
3,8 nM,"Cc1nc(C(F)(F)F)sc1Cn1c2c(c3cccnc31)CCN(C(=O)C[C@H]1CC[C@@](C)(C(=O)O)C1(C)C)C2 [Example 6(63), (1R,3R)-1,2,2-trimethyl-3-[2-(9-{[4-methyl-2-(trifluoromethyl)-1,3-thiazol-5-yl]methyl}-5,6,8,9-tetrahydro-7H-pyrido[4′,3′:4,5]pyrrolo[2,3-b]pyridin-7-yl)-2-oxoethyl]cyclopentanecarboxylic acid]"
4,5.1 nM,"O=C(CC12CCC(C(=O)O)(CC1)C2)N1CCc2c(n(Cc3cnc(C(F)(F)F)s3)c3ncccc23)C1 [Example 6(65), 4-[2-oxo-2-(9-{[2-(trifluoromethyl)-1,3-thiazol-5-yl]methyl}-5,6,8,9-tetrahydro-7H-pyrido[4′,3′:4,5]pyrrolo[2,3-b]pyridin-7-yl)ethyl]bicyclo[2.2.1]heptane-1-carboxylic acid]"
5,28 nM,"O=C(O)C1CCN(CC(=O)N2CCc3c(n(Cc4ccc(OC(F)(F)F)cc4)c4ncccc34)C2)CC1 [Example 7(3), 1-(2-oxo-2-{9-[4-(trifluoromethoxy)benzyl]-5,6,8,9-tetrahydro-7H-pyrido[4′,3′:4,5]pyrrolo[2,3-b]pyridin-7-yl}ethyl)-4-piperidinecarboxylic acid hydrochloride]"
6,4.9 nM,"C[C@@H]1CN(CC(=O)N2CCc3c(n(Cc4ccc(C(F)(F)F)s4)c4ncccc34)C2)C[C@H](C)N1CC(=O)O [Example 7(41), rel-{(2R,6S)-2,6-dimethyl-4-[2-oxo-2-(9-{[5-(trifluoromethyl)-2-thienyl]methyl}-5,6,8,9-tetrahydro-7H-pyrido[4′,3′:4,5]pyrrolo[2,3-b]pyridin-7-yl)ethyl]-1-piperazinyl}acetic acid dihydrochloride]"
7,16 nM,"O=C(O)C1=CCN(CC(=O)N2CCc3c(n(Cc4ccc(C(F)(F)F)s4)c4ncccc34)C2)CC1 [Example 7(45), 1-[2-oxo-2-(9-{[5-(trifluoromethyl)-2-thienyl]methyl}-5,6,8,9-tetrahydro-7H-pyrido[4′,3′:4,5]pyrrolo[2,3-b]pyridin-7-yl)ethyl]-1,2,3,6-tetrahydro-4-pyridinecarboxylic acid]"
8,12 nM,"O=C(CCCC1(C(=O)O)CC1)N1CCc2c(n(Cc3ccc(C(F)(F)F)s3)c3ncccc23)C1 [Example 9(1), 1-[4-oxo-4-(9-{[5-(trifluoromethyl)-2-thienyl]methyl}-5,6,8,9-tetrahydro-7H-pyrido[4′,3′:4,5]pyrrolo[2,3-b]pyridin-7-yl)butyl]cyclopropanecarboxylic acid]"
9,17 nM,"C[C@]1(C(=O)O)CC[C@H](CC(=O)N2CCc3c(n(Cc4ccc(C(F)(F)F)s4)c4ncccc34)C2)CC1 [Example 10(2), trans-1-methyl-4-[2-oxo-2-(9-{[5-(trifluoromethyl)-2-thienyl]methyl}-5,6,8,9-tetrahydro-7H-pyrido[4′,3′:4,5]pyrrolo[2,3-b]pyridin-7-yl)ethyl]cyclohexanecarboxylic acid]"
10,3.8 nM,"C[C@]1(C(=O)O)CC[C@H](CC(=O)N2CCc3c(n(Cc4cnc(C(F)(F)F)s4)c4ncccc34)C2)CC1 [Example 10(5), trans-1-methyl-4-[2-oxo-2-(9-{[2-(trifluoromethyl)-1,3-thiazol-5-yl]methyl}-5,6,8,9-tetrahydro-7H-pyrido[4′,3′:4,5]pyrrolo[2,3-b]pyridin-7-yl)ethyl]cyclohexanecarboxylic acid]"
11,5.4 nM,"COc1cc(CC(=O)N2CCc3c(n(Cc4ccc(OC(F)(F)F)cc4)c4ncccc34)C2)ccc1C(=O)O [Example 11(12), 2-methoxy-4-(2-oxo-2-{9-[4-(trifluoromethoxy)benzyl]-5,6,8,9-tetrahydro-7H-pyrido[4′,3′:4,5]pyrrolo[2,3-b]pyridin-7-yl}ethyl)benzoic acid]"
12,8.4 nM,"COc1cc(CC(=O)N2CCc3c(n(Cc4sc(C(F)(F)F)nc4C)c4ncccc34)C2)cc(OC)c1C(=O)O [Example 11(24), 2,6-dimethoxy-4-[2-(9-{[4-methyl-2-(trifluoromethyl)-1,3-thiazol-5-yl]methyl}-5,6,8,9-tetrahydro-7H-pyrido[4′,3′:4,5]pyrrolo[2,3-b]pyridin-7-yl)-2-oxoethyl]benzoic acid]"
13,14 nM,"O=C(C[C@H]1CC[C@H](C(=O)O)CC1)N1CCc2c(n(Cc3ccc(F)cc3F)c3ncccc23)C1 [Reference Example 2, trans-4-{2-[9-(2,4-difluorobenzyl)-5,6,8,9-tetrahydro-7H-pyrido[4′,3′:4,5]pyrrolo[2,3-b]pyridin-7-yl}-2-oxoethyl]cyclohexanecarboxylic acid, reference compound]"

# System: SD male rat
# Assay: Measurement of urethra internal pressure in rat under anesthesia
# Type: in vivo
# Settings: dose 1.0 mg/kg intravenously
# Description: A SD male rat (Crl: CD(SD), Charles River Laboratories Japan, Inc., 7-10 weeks old) which has fasted since the evening of the day before this experiment was anesthetized by subcutaneous administration of 1.5 g/kg urethane at a back of a neck. After an abdominal part was median incised, a catheter for duodenum was inserted within lumen of duodenum and then tied down by string. A lower abdominal part was median incised, and a urethra was ligated at around pubis. A urethral catheter for measuring a urethra internal pressure, equipped with a collar at a tip and filled with a physiological saline was inserted into a urethra through an incised bladder top, and ligation-fixed at a bladder neck part. The urethral catheter was connected to a pressure transducer (manufactured by Nihon Kohden Corporation), and a urethra internal pressure was measured. […] A urethra internal pressure reduction rate (%) was calculated based on a urethra internal pressure after compound administration, wherein a value obtained by subtracting a postmorten basline value (minimum value of urethra internal pressure for 10 minutes after administration of somnopentyl) from a urethra internal pressure value before compound administration (0 minute) was 100%.
row,Structure (SMILES),urethra internal pressure reduction rate
1,"CCc1cccc(Cn2c3c(c4cccnc42)CCN(C(=O)CC24CCC(C(=O)O)(CC2)C4)C3)c1 [Example 6(72), 4-{2-[9-(3-ethylbenzyl)-5,6,8,9-tetrahydro-7H-pyrido[4′,3′:4,5]pyrrolo[2,3-b]pyridin-7-yl]-2-oxoethyl}bicyclo[2.2.1]heptane-1-carboxylic acid]",25%

# System: Crl:CD (Sparague-Dawley) male rat
# Assay: Measurement of blood pressure, heart rate in rat under wakefulness
# Type: in vivo
# Settings: conscious rat, 100, 300 mg/kg forcedly orally administered, up to 180 minutes
# Procedure: A Crl:CD (Sparague-Dawley) male rat (Charles River Laboratories Japan, Inc., 8 weeks old) was anesthetized by inhalation of isoflurane. A catheter (INTRAMEDIC POLYETHYLENE Tubing PE50, CLAY ADAMS) was inserted and indwelled in a femoral artery and another end was exposed from dorsal skin. The rat was placed in a rearing cage for blood pressure measurement. After elapse of 2 hours or more from the insertion of the catheter, each of the compound of Reference Example 2 and the compound of Example 6(72) (dose: 100, 300 mg/kg) was forcedly orally administered, and blood pressure was measured under no anesthesia and no restraint. The blood pressure was measured by connecting the catheter inserted in the femoral artery and a blood pressure transducer (DX-360, Nihon Kohden Corporation) and passing through an amplifier for blood pressure measurement (Coupler•Amplifier PP-101HAP-101H, Nihon Kohden Corporation). Blood pressure signals were captured into a data acquisition analysis system (HEM 3.5, NOTOCORD SYSTEM S.A.) through a polygraph system (PEG-1000, Nihon Kohden Corporation) to measure blood pressure (systolic pressure, diastolic pressure, mean blood pressure) and heart rate (measured from blood pressure pulse wave). […] The data were accumulated as measured values at respective time points and % variation values in which each value before administration was taken as 100.
row,Structure (SMILES),"influence on a circulatory organ (blood pressure, heart rate)"
1,"CCc1cccc(Cn2c3c(c4cccnc42)CCN(C(=O)CC24CCC(C(=O)O)(CC2)C4)C3)c1 [Example 6(72), 4-{2-[9-(3-ethylbenzyl)-5,6,8,9-tetrahydro-7H-pyrido[4′,3′:4,5]pyrrolo[2,3-b]pyridin-7-yl]-2-oxoethyl}bicyclo[2.2.1]heptane-1-carboxylic acid]",no influence of the compound of Example 6(72) that is a compound of the present invention was observed on a circulatory organ
2,"O=C(C[C@H]1CC[C@H](C(=O)O)CC1)N1CCc2c(n(Cc3ccc(F)cc3F)c3ncccc23)C1 [Reference Example 2, trans-4-{2-[9-(2,4-difluorobenzyl)-5,6,8,9-tetrahydro-7H-pyrido[4′,3′:4,5]pyrrolo[2,3-b]pyridin-7-yl}-2-oxoethyl]cyclohexanecarboxylic acid, reference compound]",An influence of the compound of Reference Example 2 on a circulatory organ was observed
